Patent publication US20100119483A1, “PEPTIDE VIRAL ENTRY INHIBITORS” (Schering Corporation, priority 2004, published 2010)
“And” between values parts separate entries of the source, which are not always exact repeats. Equal values may be shown once.

Tests used:
HCV pseudoparticles = experiment: HCV pseudoparticle (HCVpp) entry assay in Huh7 hepatoma cells, luciferase readout; assay type: cell-based, hepatitis C virus; conditions: for RLU units: HCVpp
Summary of the method: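 Pseudoparticles carrying HCV E1/E2 on an HIV luciferase backbone were produced in 293T cells; peptide was pre-incubated 1 h at 37 °C with Huh7 cells, then virus added and luciferase read after 72 h. Dose-response used 10-point 3-fold titration from 100 ug/ml; envelope-less particles controlled non-specific entry.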

HIVpp = experiment: HIV pseudotyped virus (HIVpp) entry counter-screen; assay type: cell-based; conditions: 1st and 2nd trial
Procedure: Infection of hepatoma cell lines with HCV pseudotype particles and screen for inhibitory peptides. The hepatoma cells, Huh7, was seeded at 8000 cells in 90 ul medium in 96-well plate. In the case of the inhibitor screen, the inhibitor was incubated with cells for one hour at 37° C. and then 50 ul viral supernatant was added to the cells 24 hours after seeding. The viral stock was pre-tittered and diluted to yield approximately 10,000 to 20,000 RLU. The cells were incubated at 37° C. with 5% CO2 for additional 72 hours and were harvested for luciferase assay. Peptide stocks were prepared in 100% DMSO at 10 mg/ml and were first screened at 100 ug/ml and then a dose responsive curve was generated with 10 points 3-fold titration starting from 100 ug/ml.
The specificity of the peptides were counter-screened with AMLV and HIV pseudotyped viruses using the same infection protocol.
The data points for the dose response curve of peptide […] (SEQ ID NO: 77) are shown below in tables 5A (HCVpp) and 5B (HIVpp). The peptide of SEQ ID NO: 77 was first serial diluted by the factor of 3 in 100% DMSO from 100 ug/ml and then transferred to the assay plates at 100-fold dilution. The peptide was first incubated with cells and HCVpp (A) or HIVpp (B), respectively, for 30 minutes at […] in this experiment. Then, the medium containing the peptide was removed from the cells and virus with peptide was added to the cells. Cells were incubated for 72 hours and then were harvested for luciferase assay. Two separate trials were performed.

V-S-F-A-I-K-W-E-Y-V-L-L-L-F-L-L [SEQ ID NO: 77]
RLU units (HCV pseudoparticles; peptide conc. 0.091515 log ug/ml, 1st and 2nd trial): 1044 RLU and 833 RLU | RLU units (HCV pseudoparticles; peptide conc. 0.568636 log ug/ml, 1st and 2nd trial): 544 RLU and 500 RLU | RLU units (HCV pseudoparticles; peptide conc. 2 log ug/ml, 1st and 2nd trial): 11 RLU and 10 RLU | RLU units (HCV pseudoparticles; peptide conc. not given, 1st trial): 1494 RLU | RLU units (HCV pseudoparticles; peptide conc. −0.38561 log ug/ml, 1st and 2nd trial): 1279 RLU and 1283 RLU | RLU units (HCV pseudoparticles; peptide conc. −0.86273 log ug/ml, 1st and 2nd trial): 1866 RLU and 1762 RLU | RLU units (HCV pseudoparticles; peptide conc. −1.33985 log ug/ml (three lines), 1st and 2nd trial): 2564 RLU and 2703 RLU and 2998 RLU and 3512 RLU and 2090 RLU and 3359 RLU | HCVpp % inh (HCV pseudoparticles; peptide library screen, first screened at 100 ug/ml, cell entry inhibition vs uninhibited control): 96% | RLU units (HIVpp; peptide conc. 0.091515 log ug/ml): 674698 RLU and 651004 RLU | RLU units (HIVpp; peptide conc. 0.568636 log ug/ml): 561454 RLU and 612198 RLU | RLU units (HIVpp; peptide conc. 1.045758 log ug/ml): 740592 RLU and 744482 RLU | RLU units (HIVpp; peptide conc. 1.522879 log ug/ml): 787025 RLU and 683636 RLU | RLU units (HIVpp; peptide conc. 2 log ug/ml): 435408 RLU and 543239 RLU | RLU units (HIVpp; peptide conc. −0.38561 log ug/ml): 732652 RLU and 734586 RLU | RLU units (HIVpp; peptide conc. −0.86273 log ug/ml): 676303 RLU and 639921 RLU | RLU units (HIVpp; peptide conc. −1.33985 log ug/ml): 815312 RLU and 754404 RLU
